Results: ChEMBL document CHEMBL1201862, “PubChem BioAssay data set” (2004)
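Test compounds were applied to cells in 96-well plates for 48 hours at 5 doses. GI50 marks 50% less growth.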 Calls of active or inactive are those of the source. Cut-off read from the data, not from the text of the source: active = GI50 up to about 1.1 µM and inactive = higher.

Experiments:
Test in all cases: NCI-60 cell line screen, 48 h
HOP-18 = system: HOP-18
M19-MEL = system: M19-MEL
HCT-116 = system: HCT-116
786-0 = system: 786-0
SF-268 = system: SF-268
MDA-N = system: MDA-N
UACC-62 = system: UACC-62
PC-3 = system: PC-3
HCC 2998 = system: HCC 2998
SR = system: SR
RPMI-8226 = system: RPMI-8226
DMS-114 = system: DMS-114
LOX IMVI = system: LOX IMVI
NCI-H460 = system: NCI-H460
DU-145 = system: DU-145
DLD-1 = system: DLD-1
OVCAR-3 = system: OVCAR-3
SF-295 = system: SF-295
CAKI-1 = system: CAKI-1
SN12C = system: SN12C
MCF7 = system: MCF7
A498 = system: A498
NCI-H23 = system: NCI-H23
HOP-92 = system: HOP-92
A549 = system: A549
HCT-15 = system: HCT-15
CCRF-CEM = system: CCRF-CEM
SW-620 = system: SW-620
RXF 631 = system: RXF 631
UO-31 = system: UO-31
TK-10 = system: TK-10
SK-MEL-5 = system: SK-MEL-5
T47D = system: T47D
SF-539 = system: SF-539
K562 = system: K562
MOLT-4 = system: MOLT-4
BT-549 = system: BT-549
Malme-3M = system: Malme-3M
OVCAR-5 = system: OVCAR-5
SNB-75 = system: SNB-75
HOP-62 = system: HOP-62
EKVX = system: EKVX
U-251 = system: U-251
IGROV-1 = system: IGROV-1
XF498 = system: XF498
NCI-H226 = system: NCI-H226
SK-OV-3 = system: SK-OV-3
SNB-19 = system: SNB-19
OVCAR-4 = system: OVCAR-4
ACHN = system: ACHN
KM-20L2 = system: KM-20L2
SK-MEL-28 = system: SK-MEL-28
DMS-273 = system: DMS-273
SNB-78 = system: SNB-78
UACC-257 = system: UACC-257
RXF 393 = system: RXF 393
KM12 = system: KM12
Hs-578T = system: Hs-578T
LXFL 529 = system: LXFL 529
HT-29 = system: HT-29
NCI-H522 = system: NCI-H522
OVCAR-8 = system: OVCAR-8
MDA-MB-435 = system: MDA-MB-435
HL-60 = system: HL-60
M14 = system: M14
SK-MEL-2 = system: SK-MEL-2
COLO 205 = system: COLO 205

CC[N+]1(C)CCC(O)(c2ccc(OC)cc2)C(C(=O)c2ccc(OC)cc2)C1 (configuration not stated)
GI50 (HOP-18): 14.7 µM (inactive)
GI50 (M19-MEL): 20.5 µM (inactive)
GI50 (HCT-116): 9.27 µM (inactive)
GI50 (786-0): 3.18 µM (inactive)
GI50 (SF-268): 21.2 µM (inactive)
GI50 (MDA-N): 16.6 µM (inactive)
GI50 (UACC-62): 18.8 µM (inactive)
GI50 (PC-3): 17.7 µM (inactive)
GI50 (HCC 2998): 19.6 µM (inactive)
GI50 (SR): 2.34 µM (inactive)
GI50 (RPMI-8226): 1.91 µM (inactive)
GI50 (DMS-114): 19.9 µM (inactive)
GI50 (LOX IMVI): 16.3 µM (inactive)
GI50 (NCI-H460): 21.8 µM (inactive)
GI50 (DU-145): 15.9 µM (inactive)
GI50 (DLD-1): 2.88 µM (inactive)
GI50 (OVCAR-3): 12.4 µM (inactive)
GI50 (SF-295): 20 µM (inactive)
GI50 (CAKI-1): 5.9 µM (inactive)
GI50 (SN12C): 18.2 µM (inactive)
GI50 (MCF7): 4.4 µM (inactive)
GI50 (A498): 17.6 µM (inactive)
GI50 (NCI-H23): 17.9 µM (inactive)
GI50 (HOP-92): 2.63 µM (inactive)
GI50 (A549): 19.9 µM (inactive)
GI50 (HCT-15): 10.2 µM
GI50 (CCRF-CEM): 2.02 µM (inactive)
GI50 (SW-620): 2.08 µM (inactive)
GI50 (RXF 631): 18.5 µM (inactive)
GI50 (UO-31): 18.7 µM (inactive)
GI50 (TK-10): 4.51 µM (inactive)
GI50 (SK-MEL-5): 15.4 µM (inactive)
GI50 (T47D): 13.4 µM (inactive)
GI50 (SF-539): 17.4 µM (inactive)
GI50 (K562): 2.25 µM (inactive)
GI50 (MOLT-4): 2.23 µM (inactive)
GI50 (BT-549): 16 µM (inactive)
GI50 (Malme-3M): 6.44 µM (inactive)
GI50 (OVCAR-5): 18.7 µM (inactive)
GI50 (SNB-75): 13.7 µM (inactive)
GI50 (HOP-62): 18.9 µM (inactive)
GI50 (EKVX): 19.8 µM (inactive)
GI50 (U-251): 1.54 µM (inactive)
GI50 (IGROV-1): 20.5 µM (inactive)
GI50 (XF498): 11 µM (inactive)
GI50 (NCI-H226): 18.7 µM (inactive)
GI50 (SK-OV-3): 18 µM (inactive)
GI50 (SNB-19): 32.1 µM (inactive)
GI50 (OVCAR-4): 22 µM (inactive)
GI50 (ACHN): 13.1 µM (inactive)
GI50 (KM-20L2): 21.9 µM (inactive)
GI50 (SK-MEL-28): 15.1 µM (inactive)
GI50 (DMS-273): 19 µM (inactive)
GI50 (SNB-78): 14.8 µM (inactive)
GI50 (UACC-257): 17.5 µM (inactive)
GI50 (RXF 393): 7 µM (inactive)
GI50 (KM12): 16 µM (inactive)
GI50 (Hs-578T): 0.0368 µM (active)
GI50 (LXFL 529): 3.49 µM (inactive)
GI50 (HT-29): 7.03 µM (inactive)
GI50 (NCI-H522): 1.98 µM (inactive)
GI50 (OVCAR-8): 21 µM (inactive)
GI50 (MDA-MB-435): 16.8 µM (inactive)
GI50 (HL-60): 2.52 µM (inactive)
GI50 (M14): 8.69 µM (inactive)
GI50 (SK-MEL-2): 18.8 µM (inactive)
GI50 (COLO 205): 3.15 µM (inactive)
